Earlier results, collected in patent US9751843B2, “Substituted uracils and use thereof” (Bayer Pharma Aktiengesellschaft, priority 2013, dated 2017).

Tested on: chymase
[1] = hamsters, myocardial infarction model

For CCOc1ccccc1CC1C(=O)N(C(=O)NC(c2ccc(C)cc2)c2ccc(C)cc2)C1Oc1ccc(C(=O)O)cc1 (stereo not drawn) [BCEAB], the chymase activity (hamster, in vivo) is given as “reduced”, the hemodynamics [1] is given as “improved” and the mortality [1] is given as “reduced”.
